Source: patent US10759751B2, “Substituted spirocyclohexanes as muscarinic M1 receptor and/or M4 receptor agonists” (Heptares Therapeutics Limited, priority 2016, dated 2020)

Columns and labels:
Type in all cases: cell-based
[1] = biological target: T1, human muscarinic M3 receptor (Homo sapiens, UniProt P20309); assay: Alphascreen Surefire phospho-ERK1/2 functional assay, M3; details: for EC50: CHO cells stably expressing human M3, phospho-ERK1/2, read-out: pEC50 M3 (converted); for Emax: CHO, read-out: M3 % Emax cf. ACh
T1 construct: expressed in transfected cells
T1 sequence (P20309 whole entry): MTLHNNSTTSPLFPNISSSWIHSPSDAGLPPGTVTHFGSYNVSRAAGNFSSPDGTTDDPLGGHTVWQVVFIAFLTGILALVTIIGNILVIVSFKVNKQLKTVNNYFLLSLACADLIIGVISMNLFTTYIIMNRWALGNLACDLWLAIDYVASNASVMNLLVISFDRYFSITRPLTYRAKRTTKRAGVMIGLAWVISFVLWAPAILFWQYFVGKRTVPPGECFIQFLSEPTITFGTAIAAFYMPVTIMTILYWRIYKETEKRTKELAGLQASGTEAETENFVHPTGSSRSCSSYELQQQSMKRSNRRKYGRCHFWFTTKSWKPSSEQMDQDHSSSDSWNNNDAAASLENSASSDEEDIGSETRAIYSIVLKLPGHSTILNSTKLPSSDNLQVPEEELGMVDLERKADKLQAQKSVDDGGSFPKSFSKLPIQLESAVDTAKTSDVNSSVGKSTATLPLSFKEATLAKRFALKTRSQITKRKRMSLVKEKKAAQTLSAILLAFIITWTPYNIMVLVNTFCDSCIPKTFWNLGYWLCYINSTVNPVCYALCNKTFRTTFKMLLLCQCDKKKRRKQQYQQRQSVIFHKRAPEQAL
Procedure: (§1) Functional assays were performed using the Alphascreen Surefire phospho-ERK1/2 assay (Crouch & Osmond, Comb. Chem. High Throughput Screen, 2008). ERK1/2 phosphorylation is a downstream consequence of both Gq/11 and Gi/o protein coupled receptor activation, making it highly suitable for the assessment of M1, M3 (Gq/11 coupled) and M2, M4 receptors (Gi/o coupled), rather than using different assay formats for different receptor subtypes. CHO cells stably expressing the human muscarinic M1, M2, M3 or M4 receptor were plated (25K/well) onto 96-well tissue culture plates in MEM-alpha+10% dialysed FBS. Once adhered, cells were serum-starved overnight. Agonist stimulation was performed by the addition of 5 μL agonist to the cells for 5 min (37° C.). Media was removed and 50 μL of lysis buffer added. After 15 min, a 4 μL sample was transferred to 384-well plate and 7 μL of detection mixture added. Plates were incubated for 2 h with gentle agitation in the dark and then read on a PHERAstar plate reader.
(§2) pEC50 and Emax figures were calculated from the resulting data for each receptor subtype.

[2] = biological target: T2, human muscarinic M4 receptor (Homo sapiens, UniProt P08173); assay: Alphascreen Surefire phospho-ERK1/2 functional assay, M4; details: for EC50 / M4 % Emax cf. ACh: CHO cells stably expressing human M4; for EC50: phospho-ERK1/2, read-out: pEC50 M4 (converted); for Emax: CHO, read-out: M4 % Emax cf. ACh, CHO cells stably expressing human M4; for Emax / M4 % Emax cf. ACh: Emax relative to ACh
T2 construct: expressed in transfected cells
T2 sequence (P08173 1-479): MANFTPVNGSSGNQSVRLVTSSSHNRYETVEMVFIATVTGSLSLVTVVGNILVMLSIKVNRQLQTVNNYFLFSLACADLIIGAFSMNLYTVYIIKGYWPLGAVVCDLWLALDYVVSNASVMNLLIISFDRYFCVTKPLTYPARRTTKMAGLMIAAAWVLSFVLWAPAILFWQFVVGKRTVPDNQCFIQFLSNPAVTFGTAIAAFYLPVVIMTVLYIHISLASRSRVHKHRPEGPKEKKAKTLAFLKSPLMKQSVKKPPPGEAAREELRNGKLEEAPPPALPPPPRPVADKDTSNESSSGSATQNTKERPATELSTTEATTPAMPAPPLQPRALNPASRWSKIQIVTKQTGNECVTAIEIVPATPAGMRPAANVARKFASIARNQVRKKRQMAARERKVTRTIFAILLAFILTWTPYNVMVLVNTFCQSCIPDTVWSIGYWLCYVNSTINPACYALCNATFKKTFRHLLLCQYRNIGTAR
How it was run: (§3)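 Steps: plate CHO cells stably expressing the receptor in MEM-alpha with 10% dialysed FBS; starve overnight; add agonist for 5 min at 37 °C; lyse for 15 min; incubate the lysate with SureFire detection reagents for 2 h; read. The outputs are pEC50 and Emax.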

[3] = biological target: T3, human muscarinic M2 receptor (Homo sapiens, UniProt P08172); assay: Alphascreen Surefire phospho-ERK1/2 functional assay, M2; details: for EC50: CHO cells stably expressing human M2, phospho-ERK1/2, read-out: pEC50 M2 (converted); for Emax: CHO, read-out: M2 % Emax cf. ACh
T3 sequence (P08172 1-466): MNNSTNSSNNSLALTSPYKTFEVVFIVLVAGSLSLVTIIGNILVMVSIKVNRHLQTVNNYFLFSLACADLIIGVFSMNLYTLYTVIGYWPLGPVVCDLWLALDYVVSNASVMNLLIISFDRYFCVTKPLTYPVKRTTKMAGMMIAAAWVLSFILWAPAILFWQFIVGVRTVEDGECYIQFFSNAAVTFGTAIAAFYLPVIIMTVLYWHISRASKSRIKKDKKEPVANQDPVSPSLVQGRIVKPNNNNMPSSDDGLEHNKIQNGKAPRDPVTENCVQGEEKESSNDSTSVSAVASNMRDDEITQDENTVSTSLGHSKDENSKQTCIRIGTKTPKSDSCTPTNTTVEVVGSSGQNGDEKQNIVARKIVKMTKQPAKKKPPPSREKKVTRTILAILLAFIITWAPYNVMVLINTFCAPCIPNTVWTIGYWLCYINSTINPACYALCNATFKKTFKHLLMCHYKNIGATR
Procedure: as §1, §2

[4] = biological target: T4, human muscarinic M1 receptor (Homo sapiens, UniProt P11229); assay: Alphascreen Surefire phospho-ERK1/2 functional assay, M1; details: for EC50 / M1 % Emax cf. ACh: CHO cells stably expressing human M1; for EC50: phospho-ERK1/2, read-out: pEC50 M1 (converted); for Emax: CHO, read-out: M1 % Emax cf. ACh, CHO cells stably expressing human M1; for Emax / M1 % Emax cf. ACh: Emax relative to ACh
T4 sequence (P11229 1-460): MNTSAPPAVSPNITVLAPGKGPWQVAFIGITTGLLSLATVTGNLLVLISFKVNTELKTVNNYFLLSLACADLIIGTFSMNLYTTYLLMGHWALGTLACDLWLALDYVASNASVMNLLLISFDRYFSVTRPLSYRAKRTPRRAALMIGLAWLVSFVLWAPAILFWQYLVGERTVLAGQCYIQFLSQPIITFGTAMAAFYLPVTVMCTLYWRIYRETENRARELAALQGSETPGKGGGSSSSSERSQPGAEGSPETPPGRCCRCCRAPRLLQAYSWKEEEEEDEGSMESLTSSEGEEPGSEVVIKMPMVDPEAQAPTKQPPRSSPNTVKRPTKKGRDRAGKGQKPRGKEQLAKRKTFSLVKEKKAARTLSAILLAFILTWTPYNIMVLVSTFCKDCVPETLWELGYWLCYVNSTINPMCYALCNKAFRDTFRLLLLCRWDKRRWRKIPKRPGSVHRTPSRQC
How it was run: as §3

SMILES	EC50 [1]	Emax [1]	EC50 [2]	Emax [2]	EC50 [3]	Emax [3]	EC50 [4]	Emax [4]	M4 % Emax cf. ACh [2]	M1 % Emax cf. ACh [4]
N#CC1(c2ccccc2)CCC(N2CCCN(C(=O)OCCF)CC2)CC1 (mixture of isomers) [3-29 mixture of isomers]	> 20000 nM	3%	200 nM	68%	> 20000 nM	3%	537 nM	75%		
CCOC(=O)N[C@H]1CCN(C2CCC3(CC2)C(=O)Nc2cc(F)ccc23)C1 (single isomer, unassigned) [2-7 isomer 2]	> 20000 nM	2%	> 20000 nM		> 20000 nM	5%	52.5 nM		16%	89%
CCOC(=O)N[C@H]1CCN(C2CCC3(CC2)C(=O)Nc2ncc(Cl)cc23)C1 (single isomer, unassigned) [2-17 isomer 1]	> 20000 nM	7%	> 20000 nM	18%	> 20000 nM	7%	56.2 nM	48%		
CCOC(=O)N1CCCN(C2CCC3(CC2)C(=O)Nc2cccc(C)c23)CC1 (single isomer, unassigned) [4-8 isomer 2]	> 20000 nM	9%	97.7 nM		> 20000 nM	17%	204 nM		95%	97%
CCOC(=O)N[C@H]1CCN(C2CCC3(CC2)C(=O)Nc2ccc(C)cc23)C1 (single isomer, unassigned) [2-5 isomer 1]	> 20000 nM	15%	> 15800 nM	5%	> 20000 nM	13%	7.76 nM	49%		
C#CCOC(=O)N1CCCN(C2CCC(C#N)(c3ccc(OC)cn3)CC2)CC1 (single isomer, unassigned) [3-31 Isomer 1]	> 20000 nM	0%	2570 nM	52%	> 20000 nM	8%	19.5 nM	91%		
CCOC(=O)N(C)[C@@H]1CCN(C2CCC3(CC2)C(=O)Nc2ncccc23)C1 (single isomer, unassigned) [2-18 isomer 1]	> 20000 nM	11%	174 nM	141%	> 20000 nM	21%	148 nM	122%		
CCOC(=O)N1CCCN(C2CCC3(CC2)C(=O)Nc2cc(OC)ccc23)CC1 (single isomer, unassigned) [4-11 isomer 2]	> 20000 nM	2%	309 nM	55%	> 20000 nM	9%	132 nM	107%		
CC#CCOC(=O)N1CCCN(C2CCC(C#N)(c3ccncc3)CC2)CC1 (single isomer, unassigned) [3-30 Isomer 1]	> 20000 nM	0%	229 nM	72%	> 20000 nM	6%	295 nM	104%		
CCOC(=O)N1CCCN(C2CCC(C#N)(c3cccc(C)c3)CC2)CC1 (mixture of isomers) [3-8 mixture of isomers]	> 20000 nM	7%	105 nM	62%	> 20000 nM	18%	35.5 nM	106%		
CCOC(=O)N1CCCN(C2CCC3(CC2)C(=O)Nc2ccc(C)cc23)CC1 (single isomer, unassigned) [4-7 isomer 1]	> 20000 nM	20%	5370 nM	100%	> 20000 nM	16%	44.7 nM	115%		
CCOC(=O)N[C@H]1CCN(C2CCC(C#N)(c3ccc(F)cn3)CC2)C1 (single isomer, unassigned) [1-14 Isomer 2]	> 20000 nM	0%	> 20000 nM	32%	> 20000 nM	2%	123 nM	89%		

Second part, the molecule after the results:

EC50 [1]	Emax [1]	EC50 [2]	Emax [2]	EC50 [3]	Emax [3]	EC50 [4]	Emax [4]	M4 % Emax cf. ACh [2]	M1 % Emax cf. ACh [4]	SMILES
> 20000 nM	9%	251 nM	61%	> 20000 nM	9%	97.7 nM	111%			CCOC(=O)N1CC2CN(C3CCC(C#N)(c4ccccc4)CC3)CCC21 (single isomer, unassigned) [17-1 Isomer 2]
> 20000 nM	3%	> 20000 nM	19%	> 20000 nM	1%	275 nM	105%			CCOC(=O)N1CC2(CCN(C3CCC(C#N)(c4ccccc4)CC3)CC2)C1 (single isomer, unassigned) [11-1 Isomer 2]
> 20000 nM	59%	141 nM	40%	> 20000 nM	17%	123 nM	51%			Cc1ccc2c(c1)C1(CCC(N3CCC[C@@H](c4nc(C)no4)C3)CC1)C(=O)N2 (single isomer, unassigned) [22-3 Isomer 1]
> 20000 nM	8%	224 nM	83%	> 20000 nM	21%	1740 nM	45%			Cc1noc([C@H]2CC[C@@H](NC3CCC(C#N)(c4ccccn4)CC3)C2)n1 (single isomer, unassigned) [19-1 Isomer 2]
> 20000 nM	11%	398 nM	47%	> 20000 nM	11%	229 nM	83%			Cc1noc([C@@H]2CCCN(C3CCC4(CC3)C(=O)Nc3ccccc34)C2)n1 (single isomer, unassigned) [22-1 Isomer 1]
> 20000 nM	1%	4.79 nM	82%	> 20000 nM	18%	13.8 nM	109%			CCOC(=O)N1CCC2(CCN(C3CCC4(CC3)C(=O)Nc3ccccc34)CC2)C1 (single isomer, unassigned) [12-1 isomer 1]
> 20000 nM	19%	28.8 nM	72%	> 20000 nM	11%	93.3 nM	31%			CCc1noc(C2CC3(CCN(C4CCC5(CC4)C(=O)Nc4ccccc45)C3)C2)n1 (single isomer, unassigned) [26-3 Isomer 1]
